According to patent US20050267076A1 (priority 2004, published 2005):
Where two headings read alike, the source gives them in different places.

Key:
rats = type: in vivo, rat; conditions: for performance in the object recognition task: vs saline; for Recognition Score: saline 61%
Procedure: The experimental protocol is as follows:
[…]. Both drugs were administered by intraperitoneal (IP) injection. […].

[1] = cited from earlier work
[2] = in vivo; cited from earlier work
Long-Evans rats = experiment: 8 hour retention test on a twelve-arm radial maze (spatial memory); type: in vivo, rat; conditions: vs vehicle, t(11)=2.69, p<0.02
Procedure: 12-arm maze test: Behavioral testing was conducted by an experimenter who was blind to drug treatment. 12 Long-Evans rats trained to use a win-shift strategy were given an information trial. During the information trial, 5 of the 12 arms of the 12 arm maze were blocked so that rats were not able to consume food from those blocked arms but could obtain food from each of the 7 open arms. After this session rats were moved to their home cage and placed back in the animal holding room. […] A retroactive memory error is made when the rat enters an arm that was […] on the information trial.
12 rats (divided into three groups) were used in the experiment. Sixty minutes prior to the information session, the rats were injected intraperitoneally (IP) with 150 mg/kg ABPA (Saegis Pharmaceuticals, Inc.), 3 mg/kg donepezil, or combination of 150 mg/kg ABPA and 3 mg/kg donepezil. Physiological saline (NaCl) was used as vehicle. Treatment order was counterbalanced among three groups such that each group (N=4) received a different order of vehicle, ABPA, donepezil, and ABPA+donepezil injection across days, for a total of three tests for each treatment in all subjects.

humans = conditions: cited from earlier work

Structure (SMILES) | performance in the object recognition task (rats; ABPA 3 and 30 mg/kg IP 30 min prior to information trial, delay of 6 hours) | performance in the object recognition task (rats; ABPA 10, 100, 170, and 300 mg/kg IP 30 min prior to information trial, delay of 6 hours) | Recognition Score (rats; ABPA alone at 3 mg/kg) | Recognition Score (rats; ABPA alone at 10 mg/kg) | water solubility [1] | blood brain barrier crossing [2] | retention test performance on the 12-arm maze (Long-Evans rats; 150 mg/kg ABPA IP 60 min prior to information session) | performance in the object recognition task (rats; donepezil 1.7 mg/kg IP 30 min prior to information trial) | Recognition Score (rats; donepezil alone at 0.56 mg/kg) | Recognition Score (rats; donepezil alone at 1 mg/kg) | cognitive effect in Alzheimer's Disease patients (humans; Barner and Gray, 1998, Rogers and Friedhoff) | side effect profile in humans (humans; human, in vivo) | retention test performance on the 12-arm maze (Long-Evans rats; 3 mg/kg donepezil IP 60 min prior to information session)
CCCCP(=O)(O)CCCN [ABPA, 3-aminopropyl-(n-butyl)-phosphinic acid] | no beneficial effect | significantly enhanced performance | 61% | 70% | highly water-soluble | readily crosses the blood brain barrier | improved performance | – | – | – | – | – | –
COc1cc2c(cc1OC)C(=O)C(CC1CCN(Cc3ccccc3)CC1)C2 (racemic) [donepezil, (±)-2,3-dihydro-5,6-dimethoxy-2-[[1-(phenylmethyl)-4-piperidinyl]methyl]-1H-inden-1-one, reference compound] | – | – | – | – | – | – | – | significantly improved performance | 62% | 63% | slight cognitive improvements | cholinergic side effect profile | improved performance
